Tests used:
[1] = test system: MCF-7 cells; test: Autophagy analysis (AO, flow cytometry); type: cell-based, human; conditions: 48 h, IC50 concentration
Procedure: Thereafter, the medium was collected into 15 mL Falcon tubes, while the cells were washed with 1 mL of PBS. The cells were detached using […] of trypsin. The deactivation of trypsination was performed with the formerly collected medium, while for the untreated cells, 1 mL of complete medium was added, and the cells were collected by the pipette tip harvesting technique from each well into a new Falcon tube, which then was centrifuged for 3 min at 1000 rpm. The supernatant was discarded, and the cells were washed with 1 mL of PBS, centrifuged for 3 min at 1000 rpm and then the supernatant was discarded. Afterwards, 500 μL of the acridine orange (AO) working solution was used to stain the cells which then were incubated for 30 min at 37 °C under 5% CO2. The deactivation of the staining process was performed by adding 1 mL of PBS, and after centrifugation for 3 min at 1000 rpm, the supernatant was discarded. The cells were resuspended in 1 mL of PBS and analysed by flow cytometry.

[2] = test system: MCF-7 cells; test: ROS/RNS (DHR) and NO (DAF-FM) production, flow cytometry; type: cell-based, human; conditions: 48 h, IC50 concentration
From the text: Reactive oxygen (ROS) and nitrogen species (RNS) are natural by-products of the aerobic metabolism in cells. At physiological concentrations, they play a significant role in regulating numerous cellular processes. On the other hand, it is well-known that the reactive oxygen (O2^•−, H2O2, OH^•−) and nitrogen species (NO) are highly reactive molecules that easily damage cells by interacting with biomolecules such as proteins, lipids, carbohydrates, and nucleic acids, thus triggering different pathological conditions (inflammation, cardiovascular disorders, neurodegenerative diseases, and the formation of cancer cells).
For the investigation of ROS/RNS production the cells from the T25 flask were collected by applying 1 mL of trypsin and diluted with 9 mL of complete medium. Using 1 mL of DHR (dihydrorhodamine) working solution the cells were stained and incubated at 37 °C and 5% CO2 for 10 min. The staining process was stopped by applying 4 mL of complete medium, then the solution was centrifuged for 3 min at 1000 rpm and the supernatant was discarded. The cells were resuspended in complete medium (1 mL/well) and seeded in a 6 well plate. […] The prepared cells were analysed by flow cytometry.
The cells were washed with PBS and then treated with 1 mL of DAF-FM (4-amino-5-methylamino-2,7′-diflurofluorescin diacetate) working solution. […] The prepared cells were analysed by flow cytometry.

[3] = test system: PC-3 (human prostate cancer) cells; test: MTT assay, PC-3 cells; type: cell-based; conditions: MTT assay, 48 h incubation; read-out: IC50 (mean ± SD), PC-3, MTT
Procedure: (§1) The cell proliferations of ligand precursors and organotin(IV) compounds were evaluated with the aid of MTT (3-(4,5-dimethylthiazol-2-yl)-2,5-12 diphenyltetrazolium bromide) and CV (crystal violet) assays toward prostate (PC-3), colon (HT-29), breast (MCF-7) and hepatic (HepG2) cancer cell lines, and normal mouse embryonic fibroblast cells (NIH 3T3). The cells were cultivated in T75 flasks containing 10 mL of complete medium and kept at 37 °C and 5% CO2 […]. The nutrient medium was RPMI-1640 (PAA Laboratories) supplemented with 10% foetal bovine serum, L-glutamine, and penicillin/streptomycin (Sigma). Afterward, 5.000 cells of PC-3 and MCF-7 and 1.500 cells of HT-29 and HepG2 were transferred into 96 well-plates and used for MTT and CV assays. For microscopy investigations as well as FACS measurements (except for ROS/RNS measurements), MCF-7 cells were seeded overnight in 6-well plates (150,000 cells/well) in […] of complete medium. […] In all assays, control cells were untreated MCF-7 cells incubated for the same time period as treated cells and treated with appropriate reagents in various assays. BD FACS Aria III was used for flow cytometry experiments and results were analysed using BD FACSDiva software (BD Biosciences, Heidelberg, Germany) and Cyflogic (V 1.2.1, CyFlo Ltd., Turku, Finland). A fluorescence microscope Invitrogen EVOS FL 2 Auto 2 Cell Imaging System was used for visualization of the cells as well as for detection of fluorescence in the cells.
(§2) Ligands HL1‒HL3, organotin(IV) compounds, and cisplatin were investigated in 9 different concentrations (100, 50, 10, 5, 1, 0.5, 0.1, 0.05, 0.01 μM). Using the complete medium, each stock solution of the test compounds (20 mM in DMSO) was diluted to obtain the working solution. The final concentration of DMSO never overstepped 0.5%, which is non-toxic to the cells. Three technical replicates were performed for each concentration. The treated cells were incubated for 48 h at 37 °C under 5% CO2 and the viability of the cells was determined using MTT and CV assays according to the literature procedure. The IC50 values, defined as 50% inhibitory concentration, were calculated with a four-parameter logistic function and presented in a mean. All experiments were performed in triplicate.

[4] = test system: HepG2 (hepatocellular cancer) cells; test: CV (crystal violet) assay, HepG2 cells; type: cell-based, human; conditions: CV assay, 48 h incubation; read-out: IC50 (mean ± SD), HepG2, CV
Procedure: as §1, §2

[5] = test system: MCF-7 cells; test: Tin and platinum uptake by ICP-MS; type: cell-based, human; conditions: 24 h, at IC50 (CV assay): cisplatin 15.83 µM, Ph3SnL1 0.218 µM
Procedure: The cellular uptake features of metal-based cytotoxic drugs strongly impact the underlying anticancer performance. Intracellular tin and platinum uptake in MCF-7 cells has been investigated with the aid of inductively coupled plasma mass spectrometry (ICP-MS) analysis. The treatment of cells with Ph3SnL1 and cisplatin for 24 h in concentrations corresponding to their IC50 values, as obtained by the CV assay, was performed.
The tin and platinum uptake analysis was performed on MCF-7 cells with the aid of inductively coupled plasma mass spectrometry (ICP-MS). The cells were seeded in T25 flasks and allowed to grow. After 24 h, the exponentially growing cells were treated with 10 mL of Ph3SnL1 and cisplatin in concentrations corresponding to their IC50 values for 24 h, and thereafter trypsinised and collected by centrifugation at 1200 rpm for 8 min. Using 5 mL of ice-cold PBS the cells were washed and the metal uptake concentration in prepared samples was determined according to the previously described procedure. A Thermo Scientific iCAP Qc ICP-MS (Thermo Scientific, Bremen, Germany) instrument using the supplied autotune protocols and operational software Qtegra was employed for metal uptake determination. The measurements were performed on isotopes ^119Sn, ^120Sn, ^195Pt, and ^198Pt and the concentrations of metals were expressed as ppb (µg/L).

SMILES | autophagy (AO) [1] | production of ROS/RNS species [2] | IC50 [3] [µM] | IC50 [4] [µM] | intracellular metal (tin / platinum) uptake [5]
N.N.[Cl][Pt][Cl] [cisplatin, reference compound] | induces an autophagic response | elevates the production of both reactive oxygen and nitrogen species | 14.3 ± 0.26 | 3.65 ± 0.35 | approximately twofold higher platinum concentration in MCF-7 cells compared to tin
O=C(CCc1nc(-c2ccccc2)c(-c2ccccc2)o1)[O][Sn]([c]1ccccc1)([c]1ccccc1)[c]1ccccc1 [Ph3SnL1, (3-(4,5-Diphenyloxazol-2-yl)propanoato)triphenyltin(IV)] | autophagy process is not triggered | does not affect the production of ROS and RNS | 0.181 ± 0.027 | 0.366 ± 0.051 | two-fold lower concentration of tin in MCF-7 cells in comparison to platinum
